Measurements reported in US9226911B2, “Method of reducing weight using composition containing fucoxanthin extract” (BEIJING GINGKO GROUP BIOLOGICAL TECHNOLOGY CO., LTD., priority 2009, dated 2016).
Marks after values point to notes of the source that are not given here.

Key:
[1] = test system: model rats with alimentary obesity; experiment: Example 5: abdomen fat in model rats with alimentary obesity; assay type: in vivo, SD rats; details: x ± s, 30 d, A 9.06 μg, B 36.25 μg, C 18.12 mg (A + B: A 36.25 μg [sic])
Description: (§1) Test substances: Formulations are prepared according to the ratios shown in Table 4 Formulations for feeding animals: high-fat feed is composed of 80% basic feed, 10% lard and 10% yolk powder.
(§2) Grouping and treatment of the test animals: 80 grown-up male healthy SD clean grade rats (body weight 180-210 g) are adaptively fed with basic feed for a week, 10 are used as basic feed control, the rest are fed with high-fat feed. A month later, the group of rats fed with high-fat feed is randomly grouped into 7 groups according to their weights, 10 in each group: model control, fucoxanthin (A), tocotrienols(B), fucoidan(C), composition A+B+C, composition A+B and composition A+C. The group of basic feed keeps on feeding with basic feed, the rest groups are fed with high-fat feeds. The groups of basic feed and model control are intragastrically administrated with distilled water, the rest groups are intragastrically administrated with tested medicines, all administrated for 30 d. The groups of animals are raised in different cages in rooms with the temperature conditioned at (22±2) ° C. and under natural illumination. The rats take food and water freely. Each week, their body weights are measured and the amounts of food they take are observed and recorded. They are weighted after feeding for 30 d.
(§3) Statistical analysis: the variance from the data collected in this experiment is analyzed with SAS package, Dunnett's t test is used to compare statistically the results from different groups, the results of P<0.05 is decided as statistically significant.
The procedure was the same as in Example 4. After feeding for 30 d and weighing, executing all the rats, the abdomen fat was peeled off and weighed accurately. Statistical analysis was carried out as in Example 4

[2] = test system: model rats with alimentary obesity; experiment: Example 4: body weight of rats with high-fat-feed alimentary obesity, 30 d intragastric administration; assay type: in vivo, SD rats; details: x ± s; for Body weight (g) (after experiment): after 30 d intragastric; for Body weight (g) (before experiment): baseline after 1 month high-fat feed, 10 rats per group
Description: as §1, §2, §3

[3] = test system: model rats with alimentary obesity; experiment: Example 7: fat pads around the kidneys in model rats with alimentary obesity; assay type: in vivo, SD rats; details: x ± s; 30 d; A 181.23 μg, B 398.7 μg, C 1.81 mg
Description: as §1, §2, §3
The procedure was the same as in Example 4. After feeding for 30 d and weighing, executing all the rats, the fat pads around the kidneys were taken out and weighed accurately. Statistical analysis was carried out as in Example 4.

[4] = test system: model rats with alimentary obesity; experiment: Example 6: fat pads around the testicles in model rats with alimentary obesity; assay type: in vivo, SD rats; details: x ± s, 30 days, A 362.5 μg, B 18.12 μg, C 9.06 mg
Description: as §1, §2, §3
The procedure was the same as in Example 4. After feeding for 30 days and weighing, executing all the rats, the fat pads around the testicles were peeled off and weighed accurately. Statistical analysis was carried out as in Example 4.

test subjects = experiment: Example 8: clinic intake trial, body weight and abdomen fat areas by CT; assay type: in vivo, human
From the text: To examine the weight reducing effect of fucoxanthin composition by means of random control method, 20 eligible test subjects of the age of 20 to 50 were divided into 5 groups, A+B+C, A+C, A+B, A, B+C, with random figure table method. The number of the subjects in each group was n=4. The daily doses of the medicines taken by the subjects were according to Table 12. Apart from being administrated with each of the different tested medicines at the breakfast time according to the set way of taking the medicine, other normal life style and dietetic habit of the subjects were not changed. No low-calorie food recipe was required, no restriction to the food and drink was executed and no extra physical training was carried out. To examining the effect of sampling of the medicine, the subjects were respectively examined before sampling of the medicine and 1 month, 2 and 3 months after the sampling. That is, the bodyweight, waist- and hiplines, blood sugar and blood fat were measured, abdomen CT scanning was carried out and so on. The subjects were periodically followed-up to find out the experiences and to supervise and guarantee compliance of the customers in taking the medicine. For the test, those suffered from serious metabolic diseases that need medicinal control and those taken other weight reducing products had been excluded.
Abdomen fat areas were measured with CT • Instrument: CT Model Pronto; Hitachi, Japan. • 120 kV, 175 mA • Layer thickness of the scanning: 10 mm • Scanning in the umbilical cross-section • Attenuation of the adipose tissue: −250˜−50 HU (CT Unit) • Calculation of the fat areas: total abdomen fat, visceral- and subcutaneous fat (mm^2)
Using CT Scanning, total fat—as well as visceral fat areas were marked out across the umbilical cross-section, the areas were measured respectively, the area of subcutaneous fat was obtained as the difference of both areas.

[5] = per rat A 36.25 μg, B 36.25 μg, C 0.4 mg
[6] = over 30 d intragastric, per rat A 36.25 μg, B 36.25 μg, C 0.4 mg
[7] = n = 4, after vs before, daily dose A 2 mg, B 2 mg, C 22 mg
[8] = x ± s, n = 4, CT, oral daily dose A 2 mg, B 2 mg, C 22 mg

Substance: fucoidan
- Abdomen fat [1]: 12.99 ± 1.23 g
- Body weight (g) (after experiment) [1]: 546.59 ± 18.64 g
- Weight of abdomen fat/body weight ([1]; in % (unit assumed)): 2.38 ± 0.13
- Body weight (g) (after experiment) [2, 5]: 546.59 ± 18.64 g
- Body weight (g) (before experiment) [2]: 486.69 ± 21.12 g
- Weight increased [2, 6]: 59.90 ± 18.11 g
- Body weight (g) (after experiments) [3]: 546.59 ± 18.64 g
- Total weight of fat pads around the kidneys [3]: 9.29 ± 0.61 g
- Total weight of fat pads around the kidneys/body weight [3]: 1.70 ± 0.13
- Body weight (g) (after experiments) [4]: 546.59 ± 18.64 g
- Fat pad weight around the testicles [4]: 9.11 ± 0.48 g
- Fat pad weight around the testicles/body weight ([4]; in % (unit assumed)): 1.67 ± 0.13

Substance: fucoxanthin
- Abdomen fat (g) [1]: 9.58 ± 1.99Δ g
- Body weight (g) (after experiment) [1]: 530.18 ± 20.32 g
- Weight of abdomen fat/body weight [1]: 1.81 ± 0.13Δ
- Body weight (g) (after experiment) [2, 5]: 530.18 ± 20.32Δ g
- Body weight (g) (before experiment) [2]: 486.50 ± 22.10 g
- Weight increased(g) [2, 6]: 43.68 ± 19.13Δ g
- effects compared with B+C group (test subjects; clinic trial, P<0.05): more significant than B+C group
- The area of subcutaneous fat, Decrease (%) (test subjects; [7]): 6.10%
- The area of visceral fat, Decrease (%) (test subjects; [7]): 4.20%
- Total abdomen fat area, decrease (test subjects; [7]): 5.68%
- Body weight Change: decrease by (test subjects; n = 4, oral daily dose A 2 mg, B 2 mg, C 22 mg, after vs before): by 1.5%
- The area of subcutaneous fat, Before clinic experiment (test subjects; x ± s, n = 4, CT, difference of total and visceral fat areas, baseline): 15514 ± 1192 mm^2
- The area of subcutaneous fat, After clinic experiment (test subjects; x ± s, n = 4, CT, difference of total and visceral fat areas, daily dose A 2 mg, B 2 mg, C 22 mg): 14568 ± 1225* mm^2
- Total abdomen fat area, Before clinic experiment (test subjects; x ± s, n = 4, CT, umbilical cross-section, baseline): 36555 ± 1645 mm^2
- The area of visceral fat, Before clinic experiment (test subjects; x ± s, n = 4, CT, baseline): 17380 ± 1185 mm^2
- The area of visceral fat, After clinic experiment (test subjects; [8]): 16650 ± 1484* mm^2
- Total abdomen fat area, After clinic experiment (test subjects; [8]): 34479 ± 1475 mm^2
- Body weight, Before clinic experiment (test subjects; x ± s, n = 4, baseline): 68.4 ± 0.13 kg
- Body weight, After clinic experiment (test subjects; x ± s, n = 4, oral daily dose A 2 mg, B 2 mg, C 22 mg): 67.37 ± 0.11 kg
- Body weight (g) (after experiments) [3]: 530.18 ± 20.32 g
- Total weight of fat pads around the kidneys (g) [3]: 7.42 ± 0.60Δ g
- Total weight of fat pads around the kidneys/body weight [3]: 1.42 ± 0.12Δ
- Body weight (g) (after experiments) [4]: 530.18 ± 20.32 g
- Fat pad weight around the testicles (g) [4]: 7.32 ± 0.83Δ g
- Fat pad weight around the testicles/body weight [4]: 1.38 ± 0.11Δ
